According to the NIST ThermoML archive (doi:10.1016/j.tca.2007.09.001):
± gives the expanded uncertainty stated by the source.

Test: molar heat capacity at constant pressure
Conditions: 101.33 kPa, Crystal, Large sample (1 g) DSC

[Co+3].[Nd+3].[O-2].[O-2].[O-2] [cobalt(III) neodymium(III) oxide]
molar heat capacity at constant pressure (130 K): 57.2 ± 1.1 J/K/mol
molar heat capacity at constant pressure (140 K): 62.7 ± 1.3 J/K/mol
molar heat capacity at constant pressure (150 K): 67.7 ± 1.4 J/K/mol
molar heat capacity at constant pressure (160 K): 72.3 ± 1.4 J/K/mol
molar heat capacity at constant pressure (170 K): 76.4 ± 1.5 J/K/mol
molar heat capacity at constant pressure (180 K): 80.2 ± 1.6 J/K/mol
molar heat capacity at constant pressure (190 K): 83.5 ± 1.7 J/K/mol
molar heat capacity at constant pressure (200 K): 86.5 ± 1.7 J/K/mol
molar heat capacity at constant pressure (210 K): 89.2 ± 1.8 J/K/mol
molar heat capacity at constant pressure (220 K): 91.6 ± 1.8 J/K/mol
molar heat capacity at constant pressure (230 K): 93.8 ± 1.9 J/K/mol
molar heat capacity at constant pressure (240 K): 95.8 ± 1.9 J/K/mol
molar heat capacity at constant pressure (250 K): 97.8 ± 2 J/K/mol
molar heat capacity at constant pressure (260 K): 98.7 ± 2 J/K/mol
molar heat capacity at constant pressure (270 K): 100.5 ± 2 J/K/mol
molar heat capacity at constant pressure (280 K): 102.3 ± 2 J/K/mol
molar heat capacity at constant pressure (290 K): 104.1 ± 2.1 J/K/mol
molar heat capacity at constant pressure (298.15 K): 105.8 ± 2.1 J/K/mol
molar heat capacity at constant pressure (300 K): 105.9 ± 2.1 J/K/mol
molar heat capacity at constant pressure (325 K): 110.3 ± 2.2 J/K/mol
molar heat capacity at constant pressure (350 K): 116 ± 2.3 J/K/mol
molar heat capacity at constant pressure (375 K): 120.4 ± 2.4 J/K/mol
molar heat capacity at constant pressure (400 K): 122.9 ± 2.5 J/K/mol
molar heat capacity at constant pressure (425 K): 124.8 ± 2.5 J/K/mol
molar heat capacity at constant pressure (450 K): 127.1 ± 2.5 J/K/mol
molar heat capacity at constant pressure (475 K): 130.3 ± 2.6 J/K/mol
molar heat capacity at constant pressure (500 K): 134.5 ± 2.7 J/K/mol
molar heat capacity at constant pressure (525 K): 139.2 ± 2.8 J/K/mol
molar heat capacity at constant pressure (550 K): 144.1 ± 2.9 J/K/mol
molar heat capacity at constant pressure (575 K): 148.3 ± 3 J/K/mol
molar heat capacity at constant pressure (600 K): 151.4 ± 3 J/K/mol
molar heat capacity at constant pressure (625 K): 153.2 ± 3.1 J/K/mol
molar heat capacity at constant pressure (650 K): 153.3 ± 3.1 J/K/mol
molar heat capacity at constant pressure (675 K): 152.1 ± 3 J/K/mol
molar heat capacity at constant pressure (700 K): 149.9 ± 3 J/K/mol
molar heat capacity at constant pressure (725 K): 147.1 ± 2.9 J/K/mol
molar heat capacity at constant pressure (750 K): 144.3 ± 2.9 J/K/mol
molar heat capacity at constant pressure (775 K): 141.9 ± 2.8 J/K/mol
molar heat capacity at constant pressure (800 K): 140.3 ± 2.8 J/K/mol
molar heat capacity at constant pressure (825 K): 139.4 ± 2.8 J/K/mol
molar heat capacity at constant pressure (850 K): 138.5 ± 2.8 J/K/mol
